Measurements published in PubChem BioAssay AID2060512 (Molecular Pharmacology Branch, DTP, NCI, 2025).

Test system: 186277-243-T-J2-PDC complex spheroid viability
Experiment: Anticancer human tumor 186277-243-T-J2-PDC patient-derived colon adenocarcinoma cell line growth inhibition [GQUAD]
Conditions: for IC50: curve of first compound; for viability, T/C: stronger effect = lower value
Procedure, shortened: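 Tumor cells were grown as complex spheroids with HUVEC endothelial cells and mesenchymal stem cells as stroma. G-quadruplex stabilizers were combined with targeted agents over half-log dilutions from near the clinical Cmax, or from 10 microM.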

[1] = second compound 0.0316 µM, first compound 0.0316 µM
[2] = second compound 0.0316 µM, first compound 0.1 µM
[3] = second compound 0.0316 µM, first compound 0.316 µM
[4] = second compound 0.0316 µM, first compound 1 µM
[5] = second compound 0.0316 µM, first compound 3.16 µM
[6] = second compound 0.0316 µM, first compound 10 µM
[7] = second compound 0.1 µM, first compound 0.0316 µM
[8] = second compound 0.1 µM, first compound 0.1 µM
[9] = second compound 0.1 µM, first compound 0.316 µM
[10] = second compound 0.1 µM, first compound 1 µM
[11] = second compound 0.1 µM, first compound 3.16 µM
[12] = second compound 0.1 µM, first compound 10 µM
[13] = second compound 0.316 µM, first compound 0.0316 µM
[14] = second compound 0.316 µM, first compound 0.1 µM
[15] = second compound 0.316 µM, first compound 0.316 µM
[16] = second compound 0.316 µM, first compound 1 µM
[17] = second compound 0.316 µM, first compound 3.16 µM
[18] = second compound 0.316 µM, first compound 10 µM
[19] = second compound 1 µM, first compound 0.0316 µM
[20] = second compound 1 µM, first compound 0.1 µM
[21] = second compound 1 µM, first compound 0.316 µM
[22] = second compound 1 µM, first compound 1 µM
[23] = second compound 1 µM, first compound 3.16 µM
[24] = second compound 1 µM, first compound 10 µM
[25] = second compound 3.16 µM, first compound 0.0316 µM
[26] = second compound 3.16 µM, first compound 0.1 µM
[27] = second compound 3.16 µM, first compound 0.316 µM
[28] = second compound 3.16 µM, first compound 1 µM
[29] = second compound 3.16 µM, first compound 3.16 µM
[30] = second compound 3.16 µM, first compound 10 µM
[31] = second compound 10 µM, first compound 0.0316 µM
[32] = second compound 10 µM, first compound 0.1 µM
[33] = second compound 10 µM, first compound 0.316 µM
[34] = second compound 10 µM, first compound 1 µM
[35] = second compound 10 µM, first compound 3.16 µM
[36] = second compound 10 µM, first compound 10 µM
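Further: spheroids exposed to drugs for 7 days.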
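Wherever viability, T/C is given: 100% = DMSO vehicle control viability.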

CC(=O)O[C@H]1C(=O)[C@@]2(C)[C@H]([C@H](OC(=O)c3ccccc3)[C@]3(O)C[C@H](OC(=O)[C@H](O)[C@@H](NC(=O)c4ccccc4)c4ccccc4)C(C)=C1C3(C)C)[C@]1(OC(C)=O)CO[C@@H]1C[C@@H]2O + Cc1[nH]c2ccc(F)cc2c1-c1nc2c3cccnc3c3ncccc3c2[nH]1
IC50 (second compound 0.0316 µM): < 31.6 nM | IC50 (second compound 0.1 µM): < 31.6 nM | IC50 (second compound 0.316 µM): < 31.6 nM | IC50 (second compound 1 µM): < 31.6 nM | IC50 (second compound 3.16 µM): < 31.6 nM | IC50 (second compound 10 µM): < 31.6 nM | viability, T/C [1]: 15.7% | viability, T/C [2]: 4.95% | viability, T/C [3]: 6.22% | viability, T/C [4]: 4.92% | viability, T/C [5]: 4.75% | viability, T/C [6]: 4.49% | viability, T/C [7]: 15% | viability, T/C [8]: 5.55% | viability, T/C [9]: 4.93% | viability, T/C [10]: 4.7% | viability, T/C [11]: 4.6% | viability, T/C [12]: 4.6% | viability, T/C [13]: 15.1% | viability, T/C [14]: 5.62% | viability, T/C [15]: 4.72% | viability, T/C [16]: 4.93% | viability, T/C [17]: 5.02% | viability, T/C [18]: 4.65% | viability, T/C [19]: 12% | viability, T/C [20]: 5.43% | viability, T/C [21]: 4.8% | viability, T/C [22]: 4.59% | viability, T/C [23]: 4.91% | viability, T/C [24]: 4.25% | viability, T/C [25]: 11.6% | viability, T/C [26]: 5.28% | viability, T/C [27]: 4.81% | viability, T/C [28]: 3.9% | viability, T/C [29]: 5.02% | viability, T/C [30]: 4.07% | viability, T/C [31]: 12.4% | viability, T/C [32]: 5.2% | viability, T/C [33]: 3.75% | viability, T/C [34]: 3.85% | viability, T/C [35]: 4.46% | viability, T/C [36]: 3.46%

CC(C)(O)C1CCC(Nc2ccc3ncc(-c4cccc(C(F)(F)F)c4)n3n2)CC1 (stereo unspecified) + CN(C)c1ccc(Nc2c3ccc(NC(=O)CCN4CCCC4)cc3nc3cc(NC(=O)CCN4CCCC4)ccc23)cc1
IC50 (second compound 0.0316 µM): 2700 nM | IC50 (second compound 0.1 µM): 4050 nM | IC50 (second compound 0.316 µM): 2780 nM | IC50 (second compound 1 µM): 5190 nM | IC50 (second compound 3.16 µM): 2890 nM | IC50 (second compound 10 µM): 3530 nM | viability, T/C [1]: 103% | viability, T/C [2]: 84.8% | viability, T/C [3]: 113% | viability, T/C [4]: 92.4% | viability, T/C [5]: 42.7% | viability, T/C [6]: 44% | viability, T/C [7]: 98.8% | viability, T/C [8]: 89.1% | viability, T/C [9]: 91.4% | viability, T/C [10]: 92.1% | viability, T/C [11]: 51.6% | viability, T/C [12]: 44.1% | viability, T/C [13]: 107% | viability, T/C [14]: 92.7% | viability, T/C [15]: 108% | viability, T/C [16]: 92.3% | viability, T/C [17]: 44.9% | viability, T/C [18]: 36% | viability, T/C [19]: 93.1% | viability, T/C [20]: 99.5% | viability, T/C [21]: 85.7% | viability, T/C [22]: 92% | viability, T/C [23]: 56.2% | viability, T/C [24]: 41.7% | viability, T/C [25]: 93.1% | viability, T/C [26]: 93.5% | viability, T/C [27]: 108% | viability, T/C [28]: 81.6% | viability, T/C [29]: 48.2% | viability, T/C [30]: 27.6% | viability, T/C [31]: 133% | viability, T/C [32]: 107% | viability, T/C [33]: 96.7% | viability, T/C [34]: 98.2% | viability, T/C [35]: 41.4% | viability, T/C [36]: 22.8%

O=C(NO)c1cnc(N2CCN(S(=O)(=O)c3ccc4ccccc4c3)CC2)nc1 + Cc1cnc(CNC(=O)c2c(=O)c3ccc(N4CCCN(C)CC4)nc3n3c2sc2ccccc23)cn1
IC50 (second compound 0.0316 µM): 148 nM | IC50 (second compound 0.1 µM): 102 nM | IC50 (second compound 0.316 µM): 61.9 nM | IC50 (second compound 1 µM): < 31.6 nM | IC50 (second compound 3.16 µM): < 31.6 nM | IC50 (second compound 10 µM): < 31.6 nM | viability, T/C [1]: 96.1% | viability, T/C [2]: 71.1% | viability, T/C [3]: 9.06% | viability, T/C [4]: 0.26% | viability, T/C [5]: 0.12% | viability, T/C [6]: 0.12% | viability, T/C [7]: 66.5% | viability, T/C [8]: 50.9% | viability, T/C [9]: 9.09% | viability, T/C [10]: 0.28% | viability, T/C [11]: 0.09% | viability, T/C [12]: 0.1% | viability, T/C [13]: 64.5% | viability, T/C [14]: 39.7% | viability, T/C [15]: 8.31% | viability, T/C [16]: 0.44% | viability, T/C [17]: 0.08% | viability, T/C [18]: 0.1% | viability, T/C [19]: 40.2% | viability, T/C [20]: 34.2% | viability, T/C [21]: 8.56% | viability, T/C [22]: 0.11% | viability, T/C [23]: 0.08% | viability, T/C [24]: 0.1% | viability, T/C [25]: 33.3% | viability, T/C [26]: 24.1% | viability, T/C [27]: 0.15% | viability, T/C [28]: 0.1% | viability, T/C [29]: 0.1% | viability, T/C [30]: 0.12% | viability, T/C [31]: 34.2% | viability, T/C [32]: 19.8% | viability, T/C [33]: 0.24% | viability, T/C [34]: 0.14% | viability, T/C [35]: 0.16% | viability, T/C [36]: 0.18%
